Reference: ChEMBL document CHEMBL1909635, “Selectivity of 3'-O-methylponkoranol for inhibition of N- and C-terminal maltase glucoamylase and sucrase isomaltase, potential therapeutics for digestive disorders or their sequelae” (Bioorg Med Chem Lett, 2011)

Tests used:
[1] = Inhibition of human recombinant C-terminal subunit of maltase-glucoamylase-N2 by Lineweaver-Burk plot analysis
[2] = Inhibition of human recombinant C-terminal subunit of maltase-glucoamylase-N20 by Lineweaver-Burk plot analysis
[3] = target: T1, Sucrase-isomaltase, intestinal (Homo sapiens, UniProt P14410); experiment: Inhibition of human recombinant C-terminal Sucrase-isomaltase by Lineweaver-Burk plot analysis
[4] = target: T1, Sucrase-isomaltase, intestinal; experiment: Inhibition of human recombinant N-terminal Sucrase-isomaltase by Lineweaver-Burk plot analysis
Homo sapiens [5] = species: Homo sapiens; experiment: Selectivity ratio of Ki for human recombinant N-terminal maltase-glucoamylase to Ki for human recombinant C-terminal subunit of maltase-glucoamylase-N2
Homo sapiens [6] = species: Homo sapiens; experiment: Selectivity ratio of Ki for human recombinant N-terminal maltase-glucoamylase to Ki for human recombinant C-terminal subunit of maltase-glucoamylase-N20
Homo sapiens [7] = species: Homo sapiens; experiment: Selectivity ratio of Ki for human recombinant N-terminal maltase-glucoamylase to Ki for human recombinant C-terminal Sucrase-isomaltase
Homo sapiens [8] = species: Homo sapiens; experiment: Selectivity ratio of Ki for human recombinant N-terminal Sucrase-isomaltase to Ki for human recombinant C-terminal Sucrase-isomaltase

T1 sequence (P14410 2-1007 limits assumed): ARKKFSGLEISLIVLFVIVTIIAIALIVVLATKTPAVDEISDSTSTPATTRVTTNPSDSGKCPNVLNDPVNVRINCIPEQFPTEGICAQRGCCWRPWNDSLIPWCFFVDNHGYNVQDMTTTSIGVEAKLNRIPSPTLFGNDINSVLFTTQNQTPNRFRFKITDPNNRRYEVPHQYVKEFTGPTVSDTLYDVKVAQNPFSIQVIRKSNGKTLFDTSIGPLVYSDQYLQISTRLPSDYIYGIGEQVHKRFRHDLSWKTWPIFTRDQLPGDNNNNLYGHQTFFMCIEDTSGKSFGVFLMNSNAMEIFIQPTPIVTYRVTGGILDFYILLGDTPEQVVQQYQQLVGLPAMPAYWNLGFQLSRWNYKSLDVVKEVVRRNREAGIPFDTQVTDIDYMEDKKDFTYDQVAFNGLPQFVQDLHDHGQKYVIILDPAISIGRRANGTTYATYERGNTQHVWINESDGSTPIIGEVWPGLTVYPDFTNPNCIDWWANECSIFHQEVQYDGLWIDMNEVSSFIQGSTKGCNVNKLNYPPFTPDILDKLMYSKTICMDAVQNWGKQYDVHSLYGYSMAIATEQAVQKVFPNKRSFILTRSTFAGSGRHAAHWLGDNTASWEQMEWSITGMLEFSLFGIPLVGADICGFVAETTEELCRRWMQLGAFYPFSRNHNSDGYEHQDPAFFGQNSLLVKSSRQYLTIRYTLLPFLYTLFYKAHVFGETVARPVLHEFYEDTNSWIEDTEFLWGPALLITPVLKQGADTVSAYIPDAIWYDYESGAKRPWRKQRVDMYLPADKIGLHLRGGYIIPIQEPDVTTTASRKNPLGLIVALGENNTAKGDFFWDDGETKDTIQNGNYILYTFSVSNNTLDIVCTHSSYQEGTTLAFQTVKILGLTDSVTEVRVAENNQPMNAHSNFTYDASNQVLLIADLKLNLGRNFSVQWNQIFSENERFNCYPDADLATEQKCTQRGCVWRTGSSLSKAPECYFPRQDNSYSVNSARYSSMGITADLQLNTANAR
T1 sequence (P14410 1008-1827 limits assumed): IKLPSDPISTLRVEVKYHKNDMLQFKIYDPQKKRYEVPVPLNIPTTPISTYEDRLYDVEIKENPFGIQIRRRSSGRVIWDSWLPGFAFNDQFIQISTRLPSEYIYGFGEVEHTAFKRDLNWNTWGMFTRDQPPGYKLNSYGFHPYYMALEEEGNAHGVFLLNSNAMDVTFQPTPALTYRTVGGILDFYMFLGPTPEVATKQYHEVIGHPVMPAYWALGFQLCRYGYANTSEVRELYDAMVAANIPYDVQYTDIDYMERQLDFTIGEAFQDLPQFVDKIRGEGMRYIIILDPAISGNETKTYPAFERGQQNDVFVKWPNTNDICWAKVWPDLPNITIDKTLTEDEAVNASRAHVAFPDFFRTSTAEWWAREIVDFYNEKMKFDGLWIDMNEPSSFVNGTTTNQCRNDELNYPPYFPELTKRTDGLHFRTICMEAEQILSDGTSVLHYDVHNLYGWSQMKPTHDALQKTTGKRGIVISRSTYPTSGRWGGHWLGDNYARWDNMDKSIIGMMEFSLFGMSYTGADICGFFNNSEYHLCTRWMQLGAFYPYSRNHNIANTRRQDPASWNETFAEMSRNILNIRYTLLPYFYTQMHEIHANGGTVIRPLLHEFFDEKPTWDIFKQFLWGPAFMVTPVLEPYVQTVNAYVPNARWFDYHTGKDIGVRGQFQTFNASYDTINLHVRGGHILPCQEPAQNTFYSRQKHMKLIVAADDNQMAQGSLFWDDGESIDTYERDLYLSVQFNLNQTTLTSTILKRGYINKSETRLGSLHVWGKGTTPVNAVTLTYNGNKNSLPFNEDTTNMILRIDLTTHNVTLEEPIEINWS

SMILES: OC[C@@H]1[C@@H](O)[C@H](O)C[S@@+]1C[C@@H](O)[C@@H](O)[C@H](O)[C@@H](O)CO.[Cl-] [NEOPONKORANOL]
- Ki [1]: Not Active
- Ki [2]: 96 nM
- Ki [3]: 103 nM
- Ki [4]: 302 nM

SMILES: CO[C@@H]([C@H](O)[C@@H](O)CO)[C@H](O)C[S@+]1C[C@@H](O)[C@H](O)[C@H]1CO
- Ki ([1]; read-out: Ki): 60 nM
- Ki [2]: 55 nM
- Ki [3]: 7 nM
- Ki [4]: 35 nM
- Ratio Ki (Homo sapiens [5]): 10
- Ratio Ki (Homo sapiens [6]): 10
- Ratio Ki (Homo sapiens [7]): 70
- Ratio Ki (Homo sapiens [8]): 5
